Measurements as given in US4879237A, “Use of peptides in control of cell attachment and detachment” (La Jolla Cancer Research Foundation, priority 1985, dated 1989).

System: NRK cells
Assay: Toxicity by trypan blue exclusion and replating of detached cells
Assay type: cell-based, rat
Procedure: The activities of the crude and high performance liquid chromatrography (HPLC)-purified GRGDSP peptide were similar. […] To study the correlation of detaching capacity with the cell attachment-promoting and attachment-inhibiting effects established previously (Pierschbacher and Ruoslahti, 1984a; 1984b), each of the following listed peptides was tested for its ability to detach cells: […]

N=C(N)NCCC[C@H](NC(=O)CN)C(=O)NCC(=O)N[C@@H](CC(=O)O)C(=O)N[C@@H](CO)C(=O)N1CCC[C@H]1C(=O)O [GRGDSP, GLY-ARG-GLY-ASP-SER-PRO]
replating of aggregates washed free of the peptide (NRK aggregates): attached to the dish | cell death by trypan blue exclusion (detached NRK cells): no cell death could be detected
